Experimental data from PubChem BioAssay AID298 (DTP/NCI, 2004).
Where “and” joins values, the source holds several entries; their conditions need not be identical. Equal entries are not always repeated. Inconclusive results are not listed.

Tested on: MX-1 breast xenograft, intrarenal, nude mice, tumor weight
Experiment: NCI In Vivo Anticancer Drug Screen. Data for tumor model Human Mammary Carcinoma MX-1 Xenograft (intrarenal inoculation) in NU/NU BALB/C (nude) mice
Conditions: endpoint: mean tumor weight change, higher = larger tumour
In short: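 Mice w/ transplanted tumors, drug vs vehicle; endpoint survival or tumor size; value = T/C.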

[1] = dose: 150.0 mg/kg/injection, schedule: Q04DX003 (sc), vehicle: saline with Tween-80
[2] = dose: 300.0 mg/kg/injection, schedule: Q04DX003 (sc), vehicle: saline with Tween-80
[3] = dose: 300.0 mg/kg/injection, schedule: Q04DX003 (ip), vehicle: Klucel (hydroxypropylcellulose) (HPC)

SMILES: CN(C)c1nc(N(C)C)nc(N(C)C)n1
- T/C (dose: 12.5 mg/kg/injection, schedule: Q01DX010 (sc), vehicle: saline with Tween-80): 102 % of control
- T/C (dose: 15.0 mg/kg/injection, schedule: Q01DX010 (sc), vehicle: saline with Tween-80): 84 % of control
- T/C (dose: 25.0 mg/kg/injection, schedule: Q01DX010 (ip), vehicle: Klucel (hydroxypropylcellulose) (HPC)): 36 % of control
- T/C (dose: 25.0 mg/kg/injection, schedule: Q01DX010 (sc), vehicle: saline with Tween-80): 56 % of control
- T/C (dose: 30.0 mg/kg/injection, schedule: Q01DX010 (sc), vehicle: saline with Tween-80): 3 % of control
- T/C (dose: 50.0 mg/kg/injection, schedule: Q01DX010 (sc), vehicle: saline with Tween-80): 7 % of control
- T/C (dose: 60.0 mg/kg/injection, schedule: Q01DX010 (sc), vehicle: saline with Tween-80): -30 % of control
- T/C (dose: 75.0 mg/kg/injection, schedule: Q04DX003 (sc), vehicle: saline with Tween-80): 37 % of control
- T/C (dose: 100.0 mg/kg/injection, schedule: Q01DX010 (ip), vehicle: Klucel (hydroxypropylcellulose) (HPC)): -100 % of control
- T/C (dose: 100.0 mg/kg/injection, schedule: Q01DX010 (sc), vehicle: saline with Tween-80): 9 % of control
- T/C (dose: 120.0 mg/kg/injection, schedule: Q01DX010 (sc), vehicle: saline with Tween-80): -90 % of control
- T/C [1]: 16 % of control
- T/C (dose: 200.0 mg/kg/injection, schedule: Q01DX010 (ip), vehicle: Klucel (hydroxypropylcellulose) (HPC)): -100 % of control
- T/C (dose: 200.0 mg/kg/injection, schedule: Q01DX010 (sc), vehicle: saline with Tween-80): -5 % of control
- T/C [2]: -60 % of control

SMILES: CC(C)N1C(=O)N(Cl)C2C1N(Cl)C(=O)N2Cl (stereo not given)
- T/C (dose: 25.0 mg/kg/injection, schedule: Q04DX003 (ip), vehicle: saline with Tween-80): 113 % of control

SMILES: C=Cc1cc(OC)c2c(c1)c(=O)oc1c2cc(OC)c2c(O)ccc(C3OC(C(C)O)C(O)C3O)c21 (stereo not given)
- T/C (dose: 37.5 mg/kg/injection, schedule: Q04DX003 (ip), vehicle: Klucel (hydroxypropylcellulose) (HPC)): 91 % of control
- T/C (dose: 75.0 mg/kg/injection, schedule: Q04DX003 (ip), vehicle: Klucel (hydroxypropylcellulose) (HPC)): 51 % of control and 70 % of control
- T/C [3]: 28 % of control and 29 % of control

SMILES: O=C1C=CC2OC(c3ccccc3)C(O)C2O1 (stereo not given)
- T/C (dose: 25.0 mg/kg/injection, schedule: Q04DX003 (ip), vehicle: DMSO): 114 % of control
- T/C (dose: 50.0 mg/kg/injection, schedule: Q04DX003 (ip), vehicle: DMSO): 40 % of control

SMILES: CCOC1NC(=O)Oc2ccccc21 (stereo not given)
- T/C (dose: 150.0 mg/kg/injection, schedule: Q04DX003 (ip), vehicle: Klucel (hydroxypropylcellulose) (HPC)): 80 % of control
- T/C [3]: 74 % of control
- T/C (dose: 600.0 mg/kg/injection, schedule: Q04DX003 (ip), vehicle: Klucel (hydroxypropylcellulose) (HPC)): 86 % of control
- T/C (dose: 1200.0 mg/kg/injection, schedule: Q04DX003 (ip), vehicle: Klucel (hydroxypropylcellulose) (HPC)): 79 % of control

SMILES: O=S1(=O)CS(=O)(=O)OCCO1
- T/C (dose: 12.5 mg/kg/injection, schedule: Q04DX003 (sc), vehicle: Klucel (hydroxypropylcellulose) (HPC)): 72 % of control
- T/C (dose: 25.0 mg/kg/injection, schedule: Q04DX003 (sc), vehicle: Klucel (hydroxypropylcellulose) (HPC)): 23 % of control
- T/C (dose: 37.5 mg/kg/injection, schedule: Q04DX003 (sc), vehicle: Klucel (hydroxypropylcellulose) (HPC)): 42 % of control
- T/C (dose: 50.0 mg/kg/injection, schedule: Q04DX003 (sc), vehicle: Klucel (hydroxypropylcellulose) (HPC)): 2 % of control
- T/C (dose: 150.0 mg/kg/injection, schedule: Q04DX003 (sc), vehicle: Klucel (hydroxypropylcellulose) (HPC)): 16 % of control and 21 % of control
- T/C (dose: 300.0 mg/kg/injection, schedule: Q04DX003 (sc), vehicle: Klucel (hydroxypropylcellulose) (HPC)): 11 % of control

SMILES: c1nnc(NCNc2nncs2)s1
- T/C (dose: 50.0 mg/kg/injection, schedule: Q04DX003 (ip), vehicle: suspension in saline): 89 % of control
- T/C (dose: 100.0 mg/kg/injection, schedule: Q04DX003 (ip), vehicle: suspension in saline): 59 % of control
- T/C (dose: 200.0 mg/kg/injection, schedule: Q04DX003 (ip), vehicle: suspension in saline): 78 % of control
- T/C (dose: 400.0 mg/kg/injection, schedule: Q04DX003 (ip), vehicle: suspension in saline): 65 % of control

SMILES: CO[C@@]12[C@@H]3N[C@@H]3CN1C1=C(C(=O)C(N3CCCC3)=C(C)C1=O)[C@@H]2COC(N)=O
- T/C (dose: 1.5 mg/kg/injection, schedule: Q04DX003 (ip), vehicle: saline with Tween-80): 6 % of control and 12 % of control
- T/C (dose: 12.0 mg/kg/injection, schedule: Q04DX003 (ip), vehicle: saline with Tween-80): -98 % of control

SMILES: CNc1nc(NC)nc(NC)n1
- T/C (dose: 12.5 mg/kg/injection, schedule: Q01DX010 (sc), vehicle: Klucel (hydroxypropylcellulose) (HPC)): 156 % of control
- T/C (dose: 25.0 mg/kg/injection, schedule: Q01DX010 (sc), vehicle: Klucel (hydroxypropylcellulose) (HPC)): 152 % of control
- T/C (dose: 50.0 mg/kg/injection, schedule: Q01DX010 (sc), vehicle: Klucel (hydroxypropylcellulose) (HPC)): 122 % of control
- T/C (dose: 100.0 mg/kg/injection, schedule: Q01DX010 (sc), vehicle: Klucel (hydroxypropylcellulose) (HPC)): 83 % of control

SMILES: CC(=O)C[n+]1ccc(C)cc1Sc1ccccc1C
- T/C (dose: 15.0 mg/kg/injection, schedule: Q04DX003 (ip), vehicle: suspension in saline): 111 % of control
- T/C (dose: 30.0 mg/kg/injection, schedule: Q04DX003 (ip), vehicle: suspension in saline): 97 % of control
- T/C (dose: 60.0 mg/kg/injection, schedule: Q04DX003 (ip), vehicle: suspension in saline): 80 % of control
- T/C (dose: 120.0 mg/kg/injection, schedule: Q04DX003 (ip), vehicle: suspension in saline): 102 % of control

SMILES: O=C1c2c(O)cccc2-c2nn(CCNCCO)c3ccc(NCCNCCO)c1c23
- T/C (dose: 2.75 mg/kg/injection, schedule: Q04DX003 (ip), vehicle: water): 3 % of control
- T/C (dose: 5.5 mg/kg/injection, schedule: Q04DX003 (ip), vehicle: water): -100 % of control
- T/C (dose: 11.0 mg/kg/injection, schedule: Q04DX003 (ip), vehicle: water): -19 % of control

SMILES: CC[C@@]1(O)C(=O)OCc2c1cc1n(c2=O)Cc2cc3ccccc3nc2-1
- T/C (dose: 10.0 mg/kg/injection, schedule: Q04DX003 (sc), vehicle: saline with Tween-80): -84 % of control and -100 % of control
- T/C (dose: 20.0 mg/kg/injection, schedule: Q04DX003 (sc), vehicle: saline with Tween-80): -100 % of control and -95 % of control
- T/C (dose: 40.0 mg/kg/injection, schedule: Q04DX003 (sc), vehicle: saline with Tween-80): -100 % of control

SMILES: Nc1ccn([C@@H]2C=C(CO)[C@@H](O)[C@H]2O)c(=O)n1
- T/C (dose: 0.5 mg/kg/injection, schedule: Q01DX009 (ip), vehicle: saline): 26 % of control
- T/C (dose: 2.0 mg/kg/injection, schedule: Q01DX009 (ip), vehicle: saline): 3 % of control

SMILES: CC(=O)Oc1c[nH]c(=O)[nH]c1=O
- T/C (dose: 300.0 mg/kg/injection, schedule: Q04DX003 (sc), vehicle: distilled water + Tween-80): 116 % of control
- T/C (dose: 600.0 mg/kg/injection, schedule: Q04DX003 (sc), vehicle: distilled water + Tween-80): 118 % of control
- T/C (dose: 1200.0 mg/kg/injection, schedule: Q04DX003 (sc), vehicle: distilled water + Tween-80): 102 % of control
- T/C (dose: 2400.0 mg/kg/injection, schedule: Q04DX003 (sc), vehicle: distilled water + Tween-80): 83 % of control

SMILES: O=P1(N(CCCl)CCCl)NCCCO1 (stereo not given)
- T/C (dose: 25.0 mg/kg/injection, schedule: Q01DX010 (sc), vehicle: saline): 3 % of control
- T/C (dose: 25.0 mg/kg/injection, schedule: Q04DX003 (ip), vehicle: saline): 1 % of control and -23 % of control
- T/C (dose: 50.0 mg/kg/injection, schedule: Q01DX010 (sc), vehicle: saline): -11 % of control
- T/C (dose: 50.0 mg/kg/injection, schedule: Q04DX003 (ip), vehicle: saline): -88 % of control and -100 % of control
- T/C (dose: 100.0 mg/kg/injection, schedule: Q04DX003 (sc), vehicle: saline): -95 % of control
- T/C (dose: 200.0 mg/kg/injection, schedule: Q04DX003 (ip), vehicle: saline): -73 % of control

SMILES: O=[N+]([O-])c1ccc(Sc2ccncn2)c([N+](=O)[O-])c1
- T/C [1]: 158 % of control
- T/C [2]: 153 % of control
- T/C (dose: 600.0 mg/kg/injection, schedule: Q04DX003 (sc), vehicle: saline with Tween-80): 86 % of control
- T/C (dose: 1200.0 mg/kg/injection, schedule: Q04DX003 (sc), vehicle: saline with Tween-80): 115 % of control

SMILES: CC(C)c1cc(C(=O)O)c(O)c(C(C)C)c1.CC(C)c1cc(C(=O)O)c(O)c(C(C)C)c1.[Cu]
- T/C (dose: 12.5 mg/kg/injection, schedule: Q04DX003 (ip), vehicle: saline with Tween-80): 74 % of control
- T/C (dose: 50.0 mg/kg/injection, schedule: Q04DX003 (ip), vehicle: saline with Tween-80): 116 % of control
- T/C (dose: 100.0 mg/kg/injection, schedule: Q04DX003 (ip), vehicle: saline with Tween-80): 90 % of control
